These results are taken from PMC7248098, “Biochemical characterization and inhibition of the alternative oxidase enzyme from the fungal phytopathogen Moniliophthora perniciosa” (Communications Biology, 2020).

What is called IC50 is the concentration that gives 50% inhibition. By Km is commonly meant the substrate concentration at which the rate is half of its maximum. As a reminder, the EC50 is the concentration needed to bring the measured effect to its halfway point.

The structures appear in SMILES notation. Where “and” joins values, the source holds several entries; their conditions need not be identical. Identical values can stand only once. Entries after “also recorded” stand apart in the source; their conditions may differ.

What all share (assay type): biochemical
Data set [1] addresses T1, membrane-bound rMpAOX (Moniliophthora perniciosa, UniProt A8QJP8). Briefly: Membrane-bound rMpAOX activity with putative activators (O2 uptake, oxygraph; dose-response).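 As to Fractional velocity, %: 100% is the maximal rate reached in the activator titration.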 Particulars: for Fold-change in membrane-bound rMpAOX O2 uptake: 1 mM each; for Increase of membrane-bound rMpAOX oxygen uptake: 1 mM activator. As to the method:
(§1) E. coli membrane preparation was performed as described with minor modifications. […] The cells were disrupted using two passes at […] through a pre-cooled Constant cell disruption system (Constant Systems Ltd). The lysate was centrifuged for 15 min at 16,000 rcf, and the pelleted unbroken cells and large cell debris were discarded. The supernatant was centrifuged for 90 min at 200,000 rcf to collect the fragmented membranes.
(§2) Respiration rates were recorded before and after the addition of putative AOX activators, such as 5′-ADP, 5′-AMP, 5′-GDP, 5′-GMP, glyoxylate, oxaloacetate, pyruvate or succinate (1 mM each unless stated otherwise). […] Data were acquired with the Multiskan FC Microplate Photometer (ThermoFisher). […] Absorbance readings were taken periodically and a blank reactions (substrate without enzyme) were included in every assay and were used to determine and subtract the autoxidation rate (background). Proteoliposomes were assayed as described for the E. coli membrane fraction except that no KCN was included and 0.5 µL of the prep (~50 ng rMpAOX) were added into the reaction. When tested, inhibitors were preincubated with the enzyme in reaction buffer for 2–5 min before starting the reaction by the addition of substrate. The path length (i.e., the height of the reaction medium inside the well) was calculated based on the reaction volume and the well cross-section area informed by the supplier. GraphPad Prism 7.0 (GraphPad Software Inc.) was used for function fitting.

The target of data set [2] is T1, membrane-bound rMpAOX. Nature of the data set: Dose-response assay of inhibitors with membrane-bound, GMP-activated rMpAOX (NADH oxidation). Here is the method:
as §1, §2

For a further data set, the target named is purified rMpAOX (Moniliophthora perniciosa, UniProt A8QJP8). Nature of the data set: Purified (detergent-solubilised) rMpAOX, Q1H2 oxidation. Particulars: for Activity: [Q1H2]. Here is the method:
The E. coli membrane fraction was resuspended with 50 mM Tris-HCl pH 7.5, 20% glycerol, 200 mM MgSO4 and 1% Fos-Choline-12 (FC-12) instead of MOPS buffer. The sample was left under gentle rocking for 1 h at 4 °C, after which it was centrifuged at 200,000 rcf for 30 min. […] T. Elthon, Nebraska, USA. Protein content was estimated through the Bradford method[63] and bovine serum albumin as standard.
as §2

Where [3] appears, read: single independent measurements (Fig1a).
[4] abbreviates: substrate ubiquinol-1, 0.0125% C12E8, 100 ng rMpAOX.

Chain of purified rMpAOX (A8QJP8 entry or part of it): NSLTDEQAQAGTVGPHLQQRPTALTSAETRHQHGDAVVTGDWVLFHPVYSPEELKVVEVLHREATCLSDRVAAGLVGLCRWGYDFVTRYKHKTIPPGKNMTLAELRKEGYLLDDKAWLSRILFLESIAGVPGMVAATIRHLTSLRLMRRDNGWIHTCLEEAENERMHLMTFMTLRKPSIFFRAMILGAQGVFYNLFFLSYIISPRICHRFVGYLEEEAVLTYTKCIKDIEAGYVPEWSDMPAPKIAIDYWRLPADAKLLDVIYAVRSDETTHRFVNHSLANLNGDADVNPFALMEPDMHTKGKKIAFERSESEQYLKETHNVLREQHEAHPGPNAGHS
T1 sequence (A8QJP8 entry or part of it): as above

With `O=C(O)CCC(=O)O` [SUCC, succinate], on membrane-bound rMpAOX [1] (setting [3]), the “Fold-change in membrane-bound rMpAOX O2 uptake” value is 1.198 and 0.7995 and 1.017.
Take `C/C(=C\Cc1c(O)c(Cl)c(C)c(C=O)c1O)CC/C=C(\C)[C@@H]1CC(=O)C(C)(C)O1` [AF, ascofuranone]: the “Fractional velocity, %” value at membrane-bound rMpAOX [2] (log[I], M -4.60206 (Fig2b), 25 µM) is 3.958% and 2.609% and 7.671%; at membrane-bound rMpAOX [2] (log[I], M -5.60206 (Fig2b), 2.5 µM) it was 3.068% and 1.958% and 7.541%; at membrane-bound rMpAOX [2] (log[I], M -6.60206 (Fig2b), 0.25 µM), 2.9011% and 3.314% and 8.873%; on membrane-bound rMpAOX [2] (log[I], M -7.60206 (Fig2b), 0.025 µM), 31.9402% and 19.7329%; at membrane-bound rMpAOX [2] (log[I], M -8.60206 (Fig2b), 0.0025 µM) it was 81.2456% and 95.1772% and 65.5719%; at membrane-bound rMpAOX [2] (log[I], M -9.60206 (Fig2b), 0.00025 µM) it was 94.8574% and 87.6342%. Moreover, the “Fractional velocity, %” value at membrane-bound rMpAOX [2] (log[I], M -10.6021 (Fig2b), 25 pM) was 94.1707% and 88.3377%. Also, the activity at 0.025 µM on membrane-bound rMpAOX [2] (log[I], M -7.60206 (Fig2b), read-out: Fractional velocity, %) came to 20.3%. In addition, the activity at 0.00025 µM at membrane-bound rMpAOX [2] (log[I], M -9.60206 (Fig2b), read-out: Fractional velocity, %) was found to be 88%. For the same compound, on membrane-bound rMpAOX [2] (log[I], M -10.6021 (Fig2b), read-out: Fractional velocity, %), the activity at 25 pM was 93.1%. The concentration for half-maximal inhibition (IC50) on membrane-bound rMpAOX [2] (membrane-bound, GMP-activated rMpAOX, read-out: IC50) worked out at 8.8 nM.
In the case of `COc1c(O)c(C)c(CC=C(C)C)c(O)c1OC` [Q1H2, ubiquinol-1], the Oxidation rate at purified rMpAOX (180 µM Q1H2) was 0.36 µmol/min/mg. In addition, the Activity at purified rMpAOX (M 4.29 (Fig3c, mean)) is 25.2546 nmol/min/mg; on purified rMpAOX (M 6.87 (Fig3c, mean)), 30.5181 nmol/min/mg; at purified rMpAOX (M 10.99 (Fig3c, mean)), 60.7997 nmol/min/mg; at purified rMpAOX (M 17.58 (Fig3c, mean)), 87.5414 nmol/min/mg; at purified rMpAOX (M 28.12 (Fig3c, mean)) it was 145.463 nmol/min/mg; on purified rMpAOX (M 45 (Fig3c, mean)) it was 202.371 nmol/min/mg. In addition, the Activity was 274.627 nmol/min/mg on purified rMpAOX (M 71.99 (Fig3c, mean)); 327.356 nmol/min/mg on purified rMpAOX (M 115.19 (Fig3c, mean)); 355.622 nmol/min/mg on purified rMpAOX (M 184.3 (Fig3c, mean)). The Km at purified rMpAOX (setting [4]) is 68.5 µM. For the same compound, the VMax on purified rMpAOX (setting [4]) is 504.1 nmol Q1 min^−1 mg^−1 and 504.1 ± 28.7 nmol Q1 min^−1 mg^−1.
Regarding `CC(=O)C(=O)O` [PYR, pyruvate], the “Fold-change in membrane-bound rMpAOX O2 uptake” value at membrane-bound rMpAOX [1] (single independent measurements (Fig1a), 1000 µM) is 0.7655 and 0.9453. Also, the fold induction at 1000 µM at membrane-bound rMpAOX [1] (pH 7.5, 1 mM each, single independent measurements (Fig1a), read-out: Fold-change in membrane-bound rMpAOX O2 uptake) was found to be 0.681.
Take `Nc1ncnc2c1ncn2[C@@H]1O[C@H](COP(=O)(O)OP(=O)(O)O)[C@@H](O)[C@H]1O` [ADP, 5′-ADP]: at membrane-bound rMpAOX [1], the “Increase of membrane-bound rMpAOX oxygen uptake” value was determined as 4.5 times. Also, the “Fold-change in membrane-bound rMpAOX O2 uptake” value at membrane-bound rMpAOX [1] (setting [3]) is 5 and 3.654 and 4.737. For the same compound, the “Fractional velocity, %” value at membrane-bound rMpAOX [1] ([activator] 0.025 mM (Fig1b)) was 29.9% and 27.8%; at membrane-bound rMpAOX [1] ([activator] 0.075 mM (Fig1b)) it was 31.9% and 29.4%; at membrane-bound rMpAOX [1] ([activator] 0.175 mM (Fig1b)) it was 33.7% and 32.1%; on membrane-bound rMpAOX [1] ([activator] 0.375 mM (Fig1b)), 36.2% and 33.2%; on membrane-bound rMpAOX [1] ([activator] 0.625 mM (Fig1b)), 46.5% and 35.2%; at membrane-bound rMpAOX [1] ([activator] 1.625 mM (Fig1b)), 64.4% and 58.2%. The “Fractional velocity, %” value was 97.7% and 79.7% at membrane-bound rMpAOX [1] ([activator] 3.625 mM (Fig1b)); 128.8% and 99.5% at membrane-bound rMpAOX [1] ([activator] 6.125 mM (Fig1b)). The concentration giving a half-maximal response (EC50) on membrane-bound rMpAOX [1] (membrane-bound rMpAOX, 4-parameter sigmoid fit, read-out: EC50 of rMpAOX activation) is roughly 6.5 mM.
As to `Nc1nc2c(ncn2[C@@H]2O[C@H](COP(=O)(O)OP(=O)(O)O)[C@@H](O)[C@H]2O)c(=O)[nH]1` [GDP, 5′-GDP], on membrane-bound rMpAOX [1], the “Increase of membrane-bound rMpAOX oxygen uptake” value was “did not have any noticeable effect; also recorded: no effect”. For the same compound, on membrane-bound rMpAOX [1] (setting [3]), the “Fold-change in membrane-bound rMpAOX O2 uptake” value is 1.198 and 1.036 and 1.118. Further, the “Increase of rMpAOX basal rate” value at membrane-bound rMpAOX [1] (6.5 mM) is recorded as 1.5 times.
